Data on 22 molecules can be found in PubChem BioAssay AID330 (DTP/NCI, 2004).

The subject of this experiment is P388 leukemia ip, CD2F1 mice, survival T/C. Kind of experiment: NCI In Vivo Anticancer Drug Screen. Data for tumor model P388 Leukemia (intraperitoneal) in CD2F1 (CDF1) mice. As to conditions: endpoint: median survival time, higher = longer survival. In outline: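 Mice carrying the transplanted tumor received test compound or vehicle. Survival was recorded in each group, and the value is the treated-group measurement divided by that of the vehicle-treated control group.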

[1] abbreviates: dose: 50.0 mg/kg/injection, schedule: Q01DX009 (ip), vehicle: Klucel (hydroxypropylcellulose) (HPC).
Setting [2] is: dose: 100.0 mg/kg/injection, schedule: Q01DX009 (ip), vehicle: Klucel (hydroxypropylcellulose) (HPC).
[3] abbreviates: dose: 200.0 mg/kg/injection, schedule: Q01DX009 (ip), vehicle: Klucel (hydroxypropylcellulose) (HPC).
[4] abbreviates: dose: 50.0 mg/kg/injection, schedule: Q01DX001 (ip), vehicle: saline with Tween-80.
[5] abbreviates: dose: 100.0 mg/kg/injection, schedule: Q01DX001 (ip), vehicle: saline with Tween-80.
[6] abbreviates: dose: 200.0 mg/kg/injection, schedule: Q01DX001 (ip), vehicle: saline with Tween-80.
The mark [7] stands for this setting: dose: 50.0 mg/kg/injection, schedule: Q01DX005 (ip), vehicle: Klucel (hydroxypropylcellulose) (HPC).
The mark [8] stands for this setting: dose: 100.0 mg/kg/injection, schedule: Q01DX005 (ip), vehicle: Klucel (hydroxypropylcellulose) (HPC).
[9] abbreviates: dose: 12.5 mg/kg/injection, schedule: Q01DX009 (ip), vehicle: saline with Tween-80.
Setting [10] is: dose: 25.0 mg/kg/injection, schedule: Q01DX009 (ip), vehicle: saline with Tween-80.
[11] abbreviates: dose: 50.0 mg/kg/injection, schedule: Q01DX009 (ip), vehicle: saline with Tween-80.
[12] abbreviates: dose: 100.0 mg/kg/injection, schedule: Q04DX002 (ip), vehicle: saline with Tween-80.

“And” between values parts separate entries of the source, which are not always exact repeats. Identical values can stand only once. Inconclusive results and toxic doses are left out.

Turning to `Cc1ccc2c(c1)sc1nc(C)cc(=O)n12`, the T/C is 106 % of control (dose: 10.0 mg/kg/injection, schedule: Q04DX002 (ip), vehicle: Klucel (hydroxypropylcellulose) (HPC)); 97 % of control (dose: 20.0 mg/kg/injection, schedule: Q04DX002 (ip), vehicle: Klucel (hydroxypropylcellulose) (HPC)); 95 % of control (dose: 40.0 mg/kg/injection, schedule: Q04DX002 (ip), vehicle: Klucel (hydroxypropylcellulose) (HPC)).
On to `Cc1cc(N=Cc2cccs2)ccc1Br`, for which the T/C reads like this: under setting [1], 101 % of control and 98 % of control; under setting [2], 100 % of control and 101 % of control and 102 % of control; under setting [3], 102 % of control and 95 % of control; (dose: 400.0 mg/kg/injection, schedule: Q01DX009 (ip), vehicle: Klucel (hydroxypropylcellulose) (HPC)) 105 % of control.
Consider `CC(C)(O)c1ccc[n+]([O-])c1`, for which the T/C is 98 % of control (dose: 50.0 mg/kg/injection, schedule: Q01DX009 (ip), vehicle: saline); 107 % of control (dose: 100.0 mg/kg/injection, schedule: Q01DX009 (ip), vehicle: saline); 100 % of control (dose: 200.0 mg/kg/injection, schedule: Q01DX009 (ip), vehicle: saline).
With `O=C1Cc2c(Cl)cccc2C(=S)N1`, the T/C was 100 % of control under setting [4], 100 % of control under setting [5] and 100 % of control under setting [6].
Take `Cc1snnc1-c1ccccc1`: the T/C by setting is: under setting [7], 105 % of control; under setting [8], 105 % of control; (dose: 200.0 mg/kg/injection, schedule: Q01DX005 (ip), vehicle: Klucel (hydroxypropylcellulose) (HPC)) 96 % of control.
Take `NC(=S)N/N=C\C(=O)c1ccccc1O`: the T/C runs as follows: (dose: 9.4 mg/kg/injection, schedule: Q01DX009 (ip), vehicle: saline with Tween-80) 100 % of control (2×) and 101 % of control; (dose: 18.75 mg/kg/injection, schedule: Q01DX009 (ip), vehicle: saline with Tween-80) 90 % of control and 95 % of control and 98 % of control; (dose: 75.0 mg/kg/injection, schedule: Q01DX009 (ip), vehicle: saline with Tween-80) 99 % of control and 105 % of control; (dose: 150.0 mg/kg/injection, schedule: Q01DX009 (ip), vehicle: saline with Tween-80) 103 % of control.
As to `CCCCCCCCCCC1OCN2CCCCC12` (centres undefined), the T/C (dose: 50.0 mg/kg/injection, schedule: Q01DX005 (ip), vehicle: saline) was 108 % of control; the T/C (dose: 100.0 mg/kg/injection, schedule: Q01DX005 (ip), vehicle: saline) was 104 % of control; the T/C (dose: 200.0 mg/kg/injection, schedule: Q01DX005 (ip), vehicle: saline) was 118 % of control.
Turning to `COc1cccc(/C=C2/C(=O)N(Cc3ccco3)SC2=S)c1OC`, the T/C is 97 % of control under setting [1], 95 % of control under setting [2] and 92 % of control under setting [3].
As for `[I][Pt+2][I].[NH-]CC[NH-]`, the T/C (dose: 2.75 mg/kg/injection, schedule: Q01DX009 (ip), vehicle: Klucel (hydroxypropylcellulose) (HPC)) is 87 % of control; the T/C (dose: 5.5 mg/kg/injection, schedule: Q01DX009 (ip), vehicle: Klucel (hydroxypropylcellulose) (HPC)) was 117 % of control; the T/C (dose: 11.0 mg/kg/injection, schedule: Q01DX009 (ip), vehicle: Klucel (hydroxypropylcellulose) (HPC)) was 109 % of control; the T/C (dose: 22.0 mg/kg/injection, schedule: Q01DX009 (ip), vehicle: Klucel (hydroxypropylcellulose) (HPC)) is 111 % of control.
With `CN(C)CCN(C)CC(C)(C)C(=O)/C=C/c1ccc(Cl)c(Cl)c1`, the T/C runs as follows: (dose: 3.75 mg/kg/injection, schedule: Q01DX005 (ip), vehicle: saline) 102 % of control and 107 % of control; (dose: 7.5 mg/kg/injection, schedule: Q01DX005 (ip), vehicle: saline) 98 % of control and 95 % of control; (dose: 15.0 mg/kg/injection, schedule: Q01DX005 (ip), vehicle: saline) 99 % of control and 100 % of control and 97 % of control; (dose: 30.0 mg/kg/injection, schedule: Q01DX005 (ip), vehicle: saline) 101 % of control and 102 % of control.
Consider `CCCCOc1ccc(Nc2c3ccccc3nc3ccccc23)cc1`, for which the T/C by setting is: under setting [9], 98 % of control and 91 % of control; under setting [10], 98 % of control and 106 % of control; under setting [11], 121 % of control.
For the molecule `O=c1[nH]c2n[nH]c(=S)n2c2c1CCCC2`, the T/C is 99 % of control (dose: 50.0 mg/kg/injection, schedule: Q04DX002 (ip), vehicle: saline with Tween-80); 97 % of control under setting [12]; 99 % of control (dose: 200.0 mg/kg/injection, schedule: Q04DX002 (ip), vehicle: saline with Tween-80).
As to `Cc1nc2c([N+](=O)[O-])c(NCCO)c([N+](=O)[O-])cc2[nH]1`, the T/C is 94 % of control (dose: 100.0 mg/kg/injection, schedule: Q04DX003 (ip), vehicle: saline with Tween-80); 92 % of control (dose: 200.0 mg/kg/injection, schedule: Q04DX003 (ip), vehicle: saline with Tween-80); 103 % of control (dose: 400.0 mg/kg/injection, schedule: Q04DX003 (ip), vehicle: saline with Tween-80).
Regarding `CS(C)=O.CS(C)=O.[Cl][Rh]([Cl])([Cl])[Cl]`, the T/C reads like this: (dose: 12.5 mg/kg/injection, schedule: Q04DX003 (ip), vehicle: saline) 100 % of control; (dose: 25.0 mg/kg/injection, schedule: Q04DX003 (ip), vehicle: saline) 109 % of control; (dose: 50.0 mg/kg/injection, schedule: Q04DX003 (ip), vehicle: saline) 118 % of control.
Regarding `Cc1[nH]c2ccc(N(C)C)cc2c(=O)c1CN(C)C`, the T/C was 105 % of control under setting [1] and 108 % of control under setting [2].
As to `COc1ccc2c(c1)CCc1c-2n[nH]c1-c1[nH]nc2c1CCc1cc(OC)ccc1-2`, the T/C is 93 % of control (dose: 60.0 mg/kg/injection, schedule: Q01DX005 (ip), vehicle: Klucel (hydroxypropylcellulose) (HPC)); 93 % of control (dose: 120.0 mg/kg/injection, schedule: Q01DX005 (ip), vehicle: Klucel (hydroxypropylcellulose) (HPC)); 94 % of control (dose: 240.0 mg/kg/injection, schedule: Q01DX005 (ip), vehicle: Klucel (hydroxypropylcellulose) (HPC)).
Consider `CCOC(=O)Nc1c2ccccc2c(NC(=O)OCC)c2ccccc12`, for which the T/C is, setting by setting: under setting [4], 105 % of control; under setting [5], 100 % of control; under setting [6], 102 % of control; (dose: 400.0 mg/kg/injection, schedule: Q01DX001 (ip), vehicle: saline with Tween-80) 96 % of control.
Take `[I][Pt+2][I].[NH-]C1CCCC1[NH-]` (centres undefined): the T/C under setting [12] is 166 % of control.
On to `COc1cc(N)ccc1NC(=O)c1ccccc1`, for which the T/C (dose: 6.25 mg/kg/injection, schedule: Q01DX009 (ip), vehicle: saline with Tween-80) was 109 % of control and the T/C under setting [9] was 100 % of control.
Turning to `C[C@]12CC[C@H](O)CC1=CC[C@@H]1[C@@H]2CC[C@]2(C)c3nc4ccccc4cc3C[C@@H]12`, the T/C reads like this: under setting [9], 104 % of control; (dose: 12.5 mg/kg/injection, schedule: Q04DX003 (ip), vehicle: saline with Tween-80) 100 % of control; under setting [10], 100 % of control; (dose: 25.0 mg/kg/injection, schedule: Q04DX003 (ip), vehicle: saline with Tween-80) 100 % of control; under setting [11], 95 % of control; (dose: 50.0 mg/kg/injection, schedule: Q04DX003 (ip), vehicle: saline with Tween-80) 90 % of control.
Turning to `CCN(CC)CCCC(C)Nc1cc(OC)c2nc(C)ccc2c1OC` (centres undefined), the T/C is 97 % of control (dose: 0.78 mg/kg/injection, schedule: Q01DX009 (ip), vehicle: saline); 100 % of control (dose: 1.56 mg/kg/injection, schedule: Q01DX009 (ip), vehicle: saline); 99 % of control and 97 % of control (dose: 3.12 mg/kg/injection, schedule: Q01DX009 (ip), vehicle: saline).
As for `O=C1c2ccccc2C(=O)N1OCc1csc(-c2ccccc2)n1`, the T/C was 95 % of control under setting [7] and 101 % of control under setting [8].
